Data set [1] can be described thus: Pharmacokinetics study, plasma and brain concentration by LC-MS/MS. In kind it is in vivo. Particulars: male, mouse, sc, C57BL/6 mice, subcutaneous 3 mg/kg. Here is the method:
Male C57BL/6 mice (age of 6-8 weeks with bodyweight 21-23 g; N = 24) were purchased from JH Laboratory Animal Co. LTD. Subcutaneous injection dosing solution was prepared by diluting C004019 stock solution in 20% HP-β-CD in saline. The animals were administrated with C004019 at a dose of 3 mg/kg (10 mL/kg) via subcutaneous injection (N = 3 per timepoint), and then were anaesthetized via isoflurane at the designated time points, followed by collection of approximately 110 µL of blood sample into EDTA-2K tubes via retro-orbital puncture or cardiac puncture for terminal bleeding. The brain samples were collected at the designated time points after blood collection. All the samples were first maintained in wet ice and then the blood samples were centrifuged (2000 g, 4 °C, 5 min) to obtain plasma within 15 minutes post sampling. Afterwards, all the plasma samples and brain samples were stored at approximately -70 °C until analysis. The concentration of C004019 in plasma and brain was determined using liquid chromatograph mass spectrometry/mass spectrometry (LC-MS/MS) with a UPLC/MS-MS-015 (QTRAP 5500).

A further data set concerns the target tau (Mus musculus, UniProt P10637). Kind of data set: Single-dose subcutaneous administration in wild-type mice, brain tau by Western blotting. In kind it is in vivo. The procedure: For brain surgery and stereotaxic cerebroventricular drug delivery, the mice were placed in a stereotaxic apparatus and anesthetized with 2% isoflurane (RWD Life Science, R510-22) through a nose cone (300-500 mL/min, RWD Life Science, China, R500). The scalp was incised along the midline between the ears after the mice were sterilized with iodophors and 75% (vol/vol) alcohol. The holes were drilled stereotaxically in the skull at a cerebroventricular location (posterior 0.22 mm, lateral 0.9 mm, and ventral 2.3 mm relative to bregma). Using a microinjection system (Shenzhen RWD Life Technology Co., Ltd; RWD 69100), C004019 (5 μL, 200 μM) was infused at a rate of 0.5 μL/min. The needle was kept in place for 10 min before withdrawal. After the skin was sutured, the mice were placed on a heater for analepsia. For subcutaneous injection, C004019 was diluted with 20% HP-β-CD and injected under the skin on the back neck to reach a final concentration of 3 mg/kg (low dose) or 15 mg/kg (high dose).
The cells or hippocampal/cortex tissues were homogenized for ~ 30 min on ice in buffer [50 mM Tris·HCl pH 7.4-7.5, 100 mM NaCl, 1% (vol/vol) Triton X-100, 5 mM EDTA, 1:100 PMSF, 1:1,000 protease inhibitor cocktail containing 4-(2-Aminoethyl)-benzenesulfonyl fluoride hydrochloride, aprotinin, bestatin, leupeptin, E-64, and pepstatin A stored at 4 °C], and then centrifuged at 12,000 × g at 4 °C for 20 min. The supernatant was collected and the protein levels were analyzed using bicinchoninic acid (BCA, KF016, Sigma-Aldrich) by following the manufacturer's instruction (served as soluble protein). The pellet was further incubated with 8% (wt/vol) SDS buffer at 4 °C and then treated by ultrasonic wave to reach a complete resuspension. The suspension was spun (18,000 × g, 4 °C for 20 min) and the supernatant collected (served as insoluble fraction). The supernatant of different faction was respectively mixed with loading buffer (3:1, vol/vol) containing 200 mM Tris-HCl, pH 6.8, 8% SDS, 40% glycerol, and boiled for 10 min. For Western blotting, the proteins were separated by 10% SDS-polyacrylamide gel via electrophoresis for about 2 h and transferred to nitrocellulose membranes ([…]) for 1 h. The membranes were blocked with 5% (wt/vol) BSA dissolved in PBS for 1 h and incubated with primary antibodies overnight at 4 °C in cold room. Membranes were then incubated with a secondary antibody for 1 h at room temperature and visualized using the ECL Imaging System (610007-8Q, Clinx Science Instruments Co., Ltd). Immunoreactive bands were quantitatively analyzed by Image J2x software.
Background: In western blotting, separated proteins are transferred to a membrane and probed.

Like-named read-outs stand apart in the source and are kept apart here.

Chain of tau (P10637 114-430 isoform P10637-2 limits assumed): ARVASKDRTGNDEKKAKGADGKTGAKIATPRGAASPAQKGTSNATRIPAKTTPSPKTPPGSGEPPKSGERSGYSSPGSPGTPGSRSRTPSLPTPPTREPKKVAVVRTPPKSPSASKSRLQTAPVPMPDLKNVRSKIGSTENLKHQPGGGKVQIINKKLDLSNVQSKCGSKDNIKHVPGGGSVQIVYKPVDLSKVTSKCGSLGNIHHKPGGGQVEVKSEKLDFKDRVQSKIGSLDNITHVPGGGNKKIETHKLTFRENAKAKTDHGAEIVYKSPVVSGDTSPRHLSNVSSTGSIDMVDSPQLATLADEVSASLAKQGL

A word on the Tmax: it is the time at which the peak concentration occurs. For the compound `CC(=O)N1CCCN(c2nc(NCCc3cccs3)nc(N(C)CC(=O)NCCOCCOCCOCC(=O)N[C@H](C(=O)N3C[C@H](O)C[C@H]3C(=O)NCc3ccc(-c4scnc4C)cc3)C(C)(C)C)n2)CC1` [C004019], the brain-to-plasma Cmax ratio in data set [1] (brain/plasma, read-out: ratio of brain tissue maximal concentration to the plasma maximal concentration (Kpuu value)) came to 0.00866. Besides, the AUC(0-inf) in data set [1] (brain, read-out: AUCINF in brain) was found to be 12.6 ng·h/mL; in data set [1] (plasma, read-out: AUCINF in plasma), 1800 ng·h/mL. Besides, the AUC(0-t) in data set [1] (brain, read-out: AUClast in brain) was determined as 8.42 ng·h/mL; in data set [1] (plasma, read-out: AUClast in plasma) it was 1190 ng·h/mL. Moreover, the Cmax in data set [1] (brain, read-out: Cmax in brain (maximal brain concentration)) stood at 10.8 ng/mL; in data set [1] (plasma, read-out: Cmax in plasma) it was 1250 ng/mL. Also, the MRT inf in data set [1] (brain, read-out: MRTINF in brain) was 1.8 h; in data set [1] (plasma, read-out: MRTINF in plasma) it was 1.87 h. The half-life is 77.4 min in data set [1] (brain, read-out: T1/2 in brain (converted)) and 79.8 min in data set [1] (plasma, read-out: T1/2 in plasma (converted)). For the same compound, the Tmax is 10 min in data set [1] (brain, read-out: Tmax in brain) and 10 min in data set [1] (plasma, read-out: Tmax in plasma). Also, the “duration of tau reduction in the brain” value at tau (4 m-old wild-type mice, single-dose subcutaneous 3 mg/kg) was “sustained tau reduction till 8 days”. Moreover, the “tau level in hippocampus and cortex” value at tau (4 m-old wild-type mice, subcutaneous 3 mg/kg, 24 h, compared with 15 mg/kg) is recorded as “much more significant tau reduction than that of high dose”; at tau (4 m-old wild-type mice, subcutaneous 15 mg/kg, 24 h and 48 h) it was “Significant tau reduction”. Also, the tau reduction at tau (wild-type mice, 8 days after one treatment) was determined as 50%.

The values above are taken from paper PMC8039949, “A novel small-molecule PROTAC selectively promotes tau clearance to improve cognitive functions in Alzheimer-like models” (Theranostics, 2021).
